How the values were obtained:
Assay in all cases: relative viability (nuclei count vs DMSO), 5 days (fraction); higher = more cells survive
[1] = compound: C1/C(=C\C2=CC=CS2)/C(=O)/C(=C/C3=CC=CS3)/C1
Summary of the method: (§1)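 Hoechst staining, done together with fixation and permeabilisation, marked nuclei for 4× imaging and MetaXpress counting. This followed 5 days without medium change after lung cancer cell lines, kept overnight at 37 °C in 1536-well plates, were pinned with five library-drug doses (not always all listed) spaced by √10 on vehicle-anchored plates. Viability is the ratio of treated-well to vehicle-well nuclei, expressed as a median across plates. Plates passed only at control CV below 25% with at least one doubling.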

Lestaurtinib = compound: C[C@]12O[C@H](C[C@]1(O)CO)n1c3ccccc3c3c4c(c5c6ccccc6n2c5c31)CNC4=O [Lestaurtinib]
Summary of the method: as §1

TPCA-1 = compound: C1=CC(=CC=C1C2=CC(=C(S2)NC(=O)N)C(=O)N)F [TPCA-1]
Summary of the method: as §1

[2] = compound: C1/C(=C\C2=CC=CS2)/C(=O)/C(=C/C3=CC=CS3)/C1 + Cc1nc(NC(=O)N2CCC[C@H]2C(N)=O)sc1-c1ccnc(C(C)(C)C(F)(F)F)c1 [Alpelisib] (partner 2 µM)
Summary of the method: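 Lung cancer cell lines were pin-tool dosed in 1536-well plates on the day after seeding, with either a lone drug or a fixed anchor-drug dose plus five library-drug doses (not always all listed) in √10 steps. Nuclei were counted on 4× images after 5 days. Relative viability is the ratio of treated-well to vehicle-well nuclei counts, with each value a median of duplicate plates.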

| Cell Line | relative viability ([1]; 0.2 µM) | relative viability ([1]; 0.6325 µM) | relative viability ([1]; 2 µM) | relative viability ([1]; 6.325 µM) | relative viability ([1]; 20 µM) | relative viability (Lestaurtinib; 0.005 µM) | relative viability (Lestaurtinib; 0.01581 µM) | relative viability (Lestaurtinib; 0.05 µM) | relative viability (Lestaurtinib; 0.1581 µM) | relative viability (Lestaurtinib; 0.5 µM) | relative viability (TPCA-1; 0.04 µM) | relative viability (TPCA-1; 0.1265 µM) | relative viability (TPCA-1; 0.4 µM) | relative viability (TPCA-1; 1.265 µM) | relative viability (TPCA-1; 4 µM) | relative viability ([2]; first compound 0.2 µM) | relative viability ([2]; first compound 0.6325 µM) | relative viability ([2]; first compound 2 µM) | relative viability ([2]; first compound 6.325 µM) | relative viability ([2]; first compound 20 µM) |
| --- | --- | --- | --- | --- | --- | --- | --- | --- | --- | --- | --- | --- | --- | --- | --- | --- | --- | --- | --- | --- |
| NCI-H1563 | 1.01 | 0.876 | 1.03 | 0.936 | 0.998 | 1.06 | 1.02 | 0.913 | 0.972 | 0.72 | 0.886 | 0.964 | 0.971 | 0.941 | 0.956 | 0.933 | 0.912 | 0.881 | 0.93 | 1.02 |
| NCI-H661 | 1.05 | 1.03 | 0.998 | 0.903 | 0.985 | 1.01 | 0.972 | 0.964 | 0.935 | 0.439 | 0.963 | 0.858 | 0.983 | 0.961 | 0.7 | 0.611 | 0.792 | 0.838 | 0.515 | 0.7 |
| NCI-H1734 | 1.02 | 1.01 | 1.03 | 0.891 | 0.984 | 0.993 | 0.956 | 0.66 | 0.563 | 0.262 | 1.17 | 0.848 | 1.1 | 1.03 | 0.553 | 0.725 | 0.666 | 0.713 | 0.588 | 0.682 |
| NCI-H596 | 1 | 0.994 | 1.11 | 0.85 | 0.964 | 1.02 | 0.889 | 0.872 | 1.06 | 1.02 | 1.09 | 0.978 | 1.05 | 1.17 | 0.842 | 0.56 | 0.467 | 0.522 | 0.467 | 0.389 |
| NCI-H1944 | 1.04 | 0.922 | 0.977 | 0.858 | 0.917 | 0.888 | 0.972 | 0.968 | 0.655 | 0.396 | 1.15 | 0.88 | 1.07 | 0.998 | 0.715 | 0.864 | 0.8 | 0.855 | 0.713 | 0.818 |
| LK-2 | 1.02 | 1 | 1.1 | 1.06 | 0.966 | 1.24 | 1.06 | 0.872 | 0.651 | 0.279 | 1.24 | 0.8 | 0.993 | 0.982 | 0.503 | 0.94 | 1.02 | 0.856 | 1.13 | 0.813 |
| HCC-15 | 1.04 | 1.04 | 1.03 | 0.87 | 0.977 | 1.08 | 1.18 | 0.873 | 0.824 | 0.183 | 1.14 | 0.926 | 1.04 | 0.887 | 0.55 | 0.926 | 0.934 | 0.823 | 0.845 | 0.871 |
| NCI-H727 | 1.09 | 0.887 | 1.02 | 0.709 | 0.954 | 1.07 | 1.21 | 1.03 | 0.787 | 0.476 | 0.939 | 0.86 | 0.961 | 0.78 | 0.734 | 0.578 | 0.532 | 0.616 | 0.507 | 0.567 |
